Data as given in paper PMC5831858, “Pharmacological characterisation of CR6086, a potent prostaglandin E2 receptor 4 antagonist, as a new potential disease-modifying anti-rheumatic drug” (Arthritis Research & Therapy, 2018).
Where two headings read alike, the source gives them in different places.

Tests used:
[1] = target: T1, human EP4 receptor (Homo sapiens, UniProt P35408); assay: EP4 radioligand binding assay ([^3H]PGE2), human receptor; conditions: for Ki: read-out: Ki CR6086
T1 construct: expressed in transfected cells
T1 sequence (P35408 whole entry): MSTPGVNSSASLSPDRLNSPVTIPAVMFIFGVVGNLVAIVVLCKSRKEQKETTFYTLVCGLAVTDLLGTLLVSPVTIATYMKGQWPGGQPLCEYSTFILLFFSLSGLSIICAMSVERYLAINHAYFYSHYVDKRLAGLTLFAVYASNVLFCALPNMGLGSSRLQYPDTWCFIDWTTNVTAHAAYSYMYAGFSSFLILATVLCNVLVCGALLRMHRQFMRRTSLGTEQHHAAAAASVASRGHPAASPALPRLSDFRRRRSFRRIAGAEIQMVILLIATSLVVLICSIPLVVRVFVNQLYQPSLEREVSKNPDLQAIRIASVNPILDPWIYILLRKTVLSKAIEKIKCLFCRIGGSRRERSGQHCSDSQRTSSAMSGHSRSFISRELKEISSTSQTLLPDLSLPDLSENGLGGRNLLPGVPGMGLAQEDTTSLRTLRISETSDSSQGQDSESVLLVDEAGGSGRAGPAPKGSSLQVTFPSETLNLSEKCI
Source text: The complementary DNA (cDNA) clone of the human EP4 receptor (hEP4R; NM_000958.2) was obtained from Thermo Fisher Scientific (Ultimate ORF Clone Collection, clone ID IOH46525; Waltham, MA, USA). The coding sequence was subcloned in expression vector pcDNATM6.2/V5-DEST by using Invitrogen Gateway technology (Thermo Fisher Scientific). Human embryonic kidney cells 293 (HEK293) were obtained from the American Type Culture Collection (ATCC; Manassas, VA, USA) and transfected with expression vector for hEP4R according to the method described in the FuGENE 6 Transfection Reagent technical manual (Promega, Madison, WI, USA). The clones overexpressing the protein were selected for Blasticidin S HCl (Thermo Fisher Scientific) resistance. The selected clone was grown in DMEM containing 10% FBS and 10 μg/ml Blasticidin S HCl (selection medium) at 37 °C in a humidified atmosphere of 5% CO2 in air.
Membranes expressing the human EP4 receptor were prepared from stably transfected HEK293 cell line. Cells were grown adherent in DMEM with GlutaMAX-I (Thermo Fisher Scientific) containing 10% FBS and Blasticidin 10 μg/ml at 37 °C in a humidified atmosphere with 5% CO2. Membranes expressing the mouse or rat EP4 receptor were prepared from transiently transfected HEK293 cells. Cells were grown adherent in DMEM with GlutaMAX-I containing 10% FBS at 37 °C in a humidified atmosphere with 5% CO2. For the preparation of all cell membranes, culture medium was aspirated from 150-cm^2 flasks into which cells were seeded. Cell monolayers were then washed with 10 ml of hypotonic lysis buffer (Tris 5 mM + ethylenediaminetetraacetic acid [EDTA] 5 mM, pH 7.4), detached, and lysed with 10 ml + 10 ml of lysis buffer by mechanical scraping. Lysates were vortexed for 30 seconds and centrifuged at 40,000 × g for 22 minutes at 4 °C. Pellets were stored at −80 °C until use. Protein content of the cell membrane suspension was determined using bovine serum albumin (BSA) as a standard.
Experimental procedures were performed according to the method of Abramovitz et al.. [^3H]PGE2 (PerkinElmer, Waltham, MA, USA) binding assays for recombinant EP4 receptors were performed in 10 mM 2-(N-morpholino)ethanesulphonic acid-KOH buffer, pH 6, containing 10 mM MgCl2 and 1 mM CaCl2. Ten micrograms of protein from membrane fractions were incubated in a total volume of 0.1 ml with 1–1.5 nM [^3H]PGE2. To determine the total binding or non-specific binding, 1% dimethyl sulphoxide (DMSO) or 1 μM PGE2 was added to the reaction mixture. Incubation was carried out in 96-well multi-well plates for 90 minutes at room temperature prior to separation of the bound and free radioligand by rapid filtration on glass-fibred filters (UniFilter-96 GF/B; PerkinElmer) pre-soaked in 0.3% polyethylenimine. […] The residual [^3H]PGE2 binding was determined using a solid scintillation counter (TopCount; PerkinElmer) after at least 1 h of stabilisation. In saturation binding studies, isotherm-binding curves generated with six to eight different concentrations of [^3H]PGE2 (from 0.5 to 25 nM) were evaluated. […]
Specific binding to the receptors was defined as the difference between total binding and non-specific binding, as determined in the presence of an excess of unlabelled ligand. Binding isotherm curves were analysed to determine the equilibrium binding parameters, affinity (dissociation constant [Kd]) and maximal binding capacity of labelled ligand. Competition curves were analysed to assess the half-maximal inhibitory concentration (IC50). […]

[2] = target: T2, mouse EP4 receptor (Mus musculus, UniProt P32240); assay: EP4 radioligand binding assay ([^3H]PGE2), mouse receptor; conditions: [^3H]PGE2 displacement; transiently transfected HEK293 membranes; read-out: Ki CR6086
T2 construct: the cDNA encoding the full-length rat (NM_032076) or mouse (NM_001136079) EP4 receptors; host or cells: HEK293 (transient)
T2 sequence (P32240 whole entry): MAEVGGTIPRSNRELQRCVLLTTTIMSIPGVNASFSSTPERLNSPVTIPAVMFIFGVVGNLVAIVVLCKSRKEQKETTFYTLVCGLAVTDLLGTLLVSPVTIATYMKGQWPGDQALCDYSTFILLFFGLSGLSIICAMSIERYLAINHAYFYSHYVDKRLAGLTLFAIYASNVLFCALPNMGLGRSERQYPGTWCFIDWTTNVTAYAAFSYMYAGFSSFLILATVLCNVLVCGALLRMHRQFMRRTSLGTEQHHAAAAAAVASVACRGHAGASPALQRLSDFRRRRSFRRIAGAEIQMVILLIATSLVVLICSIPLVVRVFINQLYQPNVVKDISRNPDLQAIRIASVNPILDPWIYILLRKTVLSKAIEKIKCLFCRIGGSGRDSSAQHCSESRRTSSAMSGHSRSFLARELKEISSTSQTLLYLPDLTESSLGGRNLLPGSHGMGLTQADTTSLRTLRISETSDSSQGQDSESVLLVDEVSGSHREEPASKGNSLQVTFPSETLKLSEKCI
Source text: For rodent EP4 receptor cloning, the cDNA encoding the full-length rat (NM_032076) or mouse (NM_001136079) EP4 receptors cloned in pCMV6 entry was provided by OriGene Inc. (TrueORF Gold, catalogue numbers RN206839 and MC216813; OriGene, Rockville, MD, USA). Expression of rat and mouse receptors was obtained by transfecting HEK293 cells with the respective vector using Lipofectamine 3000 reagent (Thermo Fisher Scientific) according to the manufacturer’s instructions.
Membranes expressing the human EP4 receptor were prepared from stably transfected HEK293 cell line. […] Protein content of the cell membrane suspension was determined using bovine serum albumin (BSA) as a standard.
Experimental procedures were performed according to the method of Abramovitz et al.. […] The residual [^3H]PGE2 binding was determined using a solid scintillation counter (TopCount; PerkinElmer) after at least 1 h of stabilisation. In saturation binding studies, isotherm-binding curves generated with six to eight different concentrations of [^3H]PGE2 (from 0.5 to 25 nM) were evaluated. […]
Specific binding to the receptors was defined as the difference between total binding and non-specific binding, as determined in the presence of an excess of unlabelled ligand. […] Competition curves were analysed to assess the half-maximal inhibitory concentration (IC50). […] The results of replicated curves were expressed as mean ± SEM.

[3] = tested on: arthritic mice (collagen-induced arthritis model); assay: CIA in mice, second study: serum cytokines and signal limb histology; assay type: in vivo, mouse; conditions: 10 days
[4] = target: CysLT1 (Cys-LTs) (Homo sapiens, UniProt Q9Y271); assay: Eicosanoid receptor CysLT1 binding; conditions: [^3H]LTD4, HEK-293 cells, read-out: CR6086 Activity at 10µM
CysLT1 (Cys-LTs), sequence (Q9Y271 whole entry, species assumed): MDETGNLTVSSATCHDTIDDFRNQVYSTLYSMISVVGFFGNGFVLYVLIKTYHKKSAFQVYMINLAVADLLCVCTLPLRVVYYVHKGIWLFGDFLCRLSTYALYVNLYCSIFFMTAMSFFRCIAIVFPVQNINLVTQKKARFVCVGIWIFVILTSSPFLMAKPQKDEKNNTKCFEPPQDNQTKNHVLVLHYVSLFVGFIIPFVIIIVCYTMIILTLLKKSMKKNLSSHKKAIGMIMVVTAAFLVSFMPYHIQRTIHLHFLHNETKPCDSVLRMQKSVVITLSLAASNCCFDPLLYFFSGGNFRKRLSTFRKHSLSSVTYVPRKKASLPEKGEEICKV

[5] = target: H2 (Homo sapiens, UniProt P25021); assay: Histamine receptor H2 binding; conditions: [^125I]APT, Human recombinant CHO cells, read-out: CR6086 Activity at 10µM
H2, sequence (P25021 whole entry): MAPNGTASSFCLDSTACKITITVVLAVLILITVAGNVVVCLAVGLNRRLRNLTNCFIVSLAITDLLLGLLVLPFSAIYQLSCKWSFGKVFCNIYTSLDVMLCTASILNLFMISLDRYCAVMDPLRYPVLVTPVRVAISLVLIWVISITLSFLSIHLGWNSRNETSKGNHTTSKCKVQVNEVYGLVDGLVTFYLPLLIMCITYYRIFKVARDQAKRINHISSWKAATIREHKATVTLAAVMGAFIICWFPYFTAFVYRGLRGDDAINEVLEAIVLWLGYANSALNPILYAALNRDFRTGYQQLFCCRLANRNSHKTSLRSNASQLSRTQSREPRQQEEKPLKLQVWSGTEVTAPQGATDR

[6] = target: ETA (Homo sapiens, UniProt P25101); assay: Endothelin receptor ETA binding; conditions: [^125I]endothelin-1, Human recombinant CHO cells, read-out: CR6086 Activity at 10µM
ETA, sequence (P25101 21-427): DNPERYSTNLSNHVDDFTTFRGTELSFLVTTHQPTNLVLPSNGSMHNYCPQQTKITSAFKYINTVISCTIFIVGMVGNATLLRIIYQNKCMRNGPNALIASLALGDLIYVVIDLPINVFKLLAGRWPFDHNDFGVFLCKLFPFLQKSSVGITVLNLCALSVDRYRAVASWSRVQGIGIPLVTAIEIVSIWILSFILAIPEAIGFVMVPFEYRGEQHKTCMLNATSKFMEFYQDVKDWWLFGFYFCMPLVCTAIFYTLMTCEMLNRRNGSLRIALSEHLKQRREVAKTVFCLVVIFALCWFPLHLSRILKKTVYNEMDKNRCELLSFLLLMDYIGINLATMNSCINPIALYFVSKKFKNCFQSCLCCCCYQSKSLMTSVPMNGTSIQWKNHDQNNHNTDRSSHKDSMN

[7] = equilibrium binding, CR6086 50 nM
[8] = 30 mg/kg oral daily, mean ± SEM
[9] = 60 mg/kg oral daily, mean ± SEM

With `O=C([O-])c1ccc(C2(NC(=O)[C@H]3CC4(CCN3Cc3ccc(C(F)(F)F)cc3)CC4)CC2)cc1.[Na+]` [CR6086, Sodium (R)-4-(1-(6-(4-(trifluoromethyl)benzyl)-6-azaspiro[2.5]octane-5-carboxamido)cyclopropyl)benzoate] the Ki ([1]; [^3H]PGE2 displacement, HEK293 membranes, absence of BSA) was 16.6 nM, the Ki ([1]; after addition of 0.5% BSA in the assay buffer) was 15.5 nM and the “change in [^3H]PGE2 affinity in the presence of CR6086” value [1, 7] was “fourfold decrease”. For the same compound, the “change in maximal binding capacity of [^3H]PGE2” value [1, 7] was “+20%”, the type of antagonism [1, 7] was “competitive antagonist” and the Ki [2] was 75.9 ± 7.6 nM. It also gave an IFNγ serum concentration [3, 8] of 1.79 ± 0.32 pg/mL, an IL-10 serum concentration [3, 8] of 16.17 ± 1.95 pg/mL and an IL-17 serum concentration [3, 8] of 2.36 ± 0.62 pg/mL. It also gave a TNFα serum concentration [3, 8] of 34.37 ± 2.21 pg/mL, an IL-10 serum concentration [3, 9] of 18.16 ± 2.65 pg/mL and an IL-17 serum concentration [3, 9] of 0.92 ± 0.20 pg/mL. For the same compound, the TNFα serum concentration [3, 9] was 33.67 ± 3.58 pg/mL, the “effect on IL-6 mean serum concentrations” value ([3]; 60 mg/kg oral once daily) was “returned towards normal levels” and the “histological scores of the signal limb” value ([3]; 30 and 60 mg/kg oral once daily) was “acts as a disease modifier”. The inhibition at 10 µM [4] was less than 20%, the inhibition at 10 µM [5] was less than 20% and the inhibition at 10 µM [6] was less than 20%.
